For two molecules, IC50 results are on record in BindingDB's records for patent US10981904 (Cancer Research Technology, 2021).

The target of this experiment is T1, Glutaminase kidney isoform, mitochondrial [63-669] (Homo sapiens, UniProt O94925).
T1 sequence (O94925 whole entry): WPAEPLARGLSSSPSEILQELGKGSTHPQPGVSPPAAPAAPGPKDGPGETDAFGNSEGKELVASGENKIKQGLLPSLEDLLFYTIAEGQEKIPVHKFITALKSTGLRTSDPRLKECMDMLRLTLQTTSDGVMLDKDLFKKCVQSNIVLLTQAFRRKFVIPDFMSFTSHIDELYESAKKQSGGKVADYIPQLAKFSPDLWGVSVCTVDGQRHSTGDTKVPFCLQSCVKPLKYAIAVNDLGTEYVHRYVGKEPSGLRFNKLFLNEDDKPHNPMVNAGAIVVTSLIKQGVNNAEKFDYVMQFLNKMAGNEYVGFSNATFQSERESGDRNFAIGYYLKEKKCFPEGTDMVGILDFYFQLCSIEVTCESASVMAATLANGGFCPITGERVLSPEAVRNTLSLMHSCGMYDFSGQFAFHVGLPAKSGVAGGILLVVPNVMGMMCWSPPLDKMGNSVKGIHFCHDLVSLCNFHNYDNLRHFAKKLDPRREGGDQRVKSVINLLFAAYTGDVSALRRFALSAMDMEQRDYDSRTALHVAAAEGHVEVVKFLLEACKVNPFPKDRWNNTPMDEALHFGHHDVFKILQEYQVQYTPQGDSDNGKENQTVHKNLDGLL
The experiment is described as follows: GLS Enzyme Potency Assay. As for the experimental part:
A Glutamate Oxidase/AmplexRed coupled assay was used to measure the ability of compounds to bind to and inhibit the activity of GLS1 in vitro. […] GLS1 was diluted to 2× working concentration and incubated at room temperature to allow the tetrameric/dimeric forms to reach steady state. Assay measurements were performed in buffer comprising 50 mM TRIS pH 7.8, 100 mM NaPO4, pH 7.8, 0.001% v/v Tween20. […] DMSO concentration was maintained at 2% by back filling with DMSO solution. […] 3 μL of 100 mM glutamine diluted in assay buffer was then added and the reaction incubated at room temperature for 60 minutes. […] An artefact version of the assay where the 6His tagged GLS protein and glutamine were replaced with assay buffer was also used to rule out non specific effects on the assay components.

`COC1CN(c2cc([C@H](OC)C(=O)Nc3nnc(N[C@@H]4CCN(c5cccnn5)C4)s3)ccc2F)C1` [US10981904, Example 7(b)] registered an IC50 of 192 nM.

`CO[C@H](C(=O)Nc1nnc(N[C@@H]2CCN(c3cccnn3)C2)s1)c1ccccc1C1COC1` [US10981904, Example 25] came in with an IC50 of 1840 nM.

The IC50 is the midpoint of a concentration-inhibition curve.
